According to patent US20240366564A1, “Use of Chlorophyll Derivatives for the Treatment of SARS-CoV-2 Infection” (priority 2021, published 2024):
“Also recorded” adds a separate entry of the source. Where two headings read alike, the source gives them in different places.

What was measured:
[1] = biological target: T1, binding of SARS-CoV-2 Spike protein (S1 subunit) to ACE2 (UniProt P0DTC2+Q9BYF1); assay: biochemical
T1 construct: a fusion protein of the SARS-CoV-2 spike protein S1 subunit and the horseradish peroxidase (HRP) enzyme
T1 sequence (Q9BYF1 18-740, one chain of several): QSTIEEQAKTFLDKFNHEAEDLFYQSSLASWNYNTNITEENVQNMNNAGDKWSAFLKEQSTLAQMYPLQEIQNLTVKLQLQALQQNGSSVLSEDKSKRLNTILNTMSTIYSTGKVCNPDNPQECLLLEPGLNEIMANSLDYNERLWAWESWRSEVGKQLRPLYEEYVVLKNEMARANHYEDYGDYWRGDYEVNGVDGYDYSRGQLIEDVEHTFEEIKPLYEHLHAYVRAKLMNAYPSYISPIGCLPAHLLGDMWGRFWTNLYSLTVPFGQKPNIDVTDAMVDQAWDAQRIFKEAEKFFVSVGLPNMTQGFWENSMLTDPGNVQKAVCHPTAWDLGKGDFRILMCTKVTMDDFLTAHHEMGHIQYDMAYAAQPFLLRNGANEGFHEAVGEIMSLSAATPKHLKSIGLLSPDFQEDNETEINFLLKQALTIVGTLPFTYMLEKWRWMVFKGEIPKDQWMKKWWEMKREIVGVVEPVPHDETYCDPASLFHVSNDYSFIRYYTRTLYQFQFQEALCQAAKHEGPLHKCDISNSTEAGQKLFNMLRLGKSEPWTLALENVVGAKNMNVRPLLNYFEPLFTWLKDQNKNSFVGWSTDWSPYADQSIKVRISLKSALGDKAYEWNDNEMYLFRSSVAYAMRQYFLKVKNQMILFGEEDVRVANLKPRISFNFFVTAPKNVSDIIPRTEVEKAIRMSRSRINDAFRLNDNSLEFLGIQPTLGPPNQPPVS

[2] = system: SARS-CoV-2-infected permissive cell lines (Vero E6, Huh-7.5, A549 ACE2+, HT1080 ACE2+)
[3] = system: SARS-CoV-2 USA-WA1/2020 virus; format: cell-based

Row | Compound | Active (Y or N) [1] | also measured
1 | C1=Cc2nc1cc1ccc([nH]1)c(-c1ccccc1)c1nc(cc3ccc([nH]3)c2-c2ccccc2)C=C1 [5,15-diphenyl-21H,23H-porphine] | N | –
2 | C=Cc1c(C)c2cc3nc(c(CC(=O)O)c4[nH]c(cc5nc(cc1[nH]2)C(C)=C5CC)c(C)c4C(=O)O)[C@@H](CCC(=O)O)[C@@H]3C [Chlorin E6] | Y (weak) | IC50 ([1]; read-out: IC50): 5000 nM
3 | C=Cc1c(C)c2cc3nc(c4c5[n-]c(cc6nc(cc1[n-]2)C(C)=C6CC)c(C)c5C(=O)[C@@H]4C(=O)OC)[C@@H](CCC(=O)OC/C=C(\C)CCC[C@H](C)CCC[C@H](C)CCCC(C)C)[C@@H]3C.[Mg+2] [Chlorophyll A] | N | –
4 | C=Cc1c(C)c2cc3nc(c4c5[n-]c(cc6nc(cc1[n-]2)C(C=O)=C6CC)c(C)c5C(=O)[C@@H]4C(=O)OC)[C@@H](CCC(=O)OC/C=C(\C)CCC[C@H](C)CCC[C@H](C)CCCC(C)C)[C@@H]3C.[Mg+2] [Chlorophyll B] | N | –
5 | C=Cc1c(C)c2cc3nc(c4c5[nH]c(cc6nc(cc1[nH]2)C(C)=C6CC)c(C)c5C(=O)[C@@H]4C(=O)OC)[C@@H](CCC(=O)O)[C@@H]3C [Pheophorbide A] | Y | IC50 [1]: 500 nM; inhibition of the binding of SARS-CoV-2 Spike protein to ACE2 (in words) [1]: dose dependent decrease in binding; also recorded: dose-dependent inhibition; toxicity to the infected cells relative to antiviral doses [2]: antiviral activity was detected at doses lower than the dosing where pheophorbide A was toxic; antiviral activity under light exposure versus dark [3]: generally improved; antiviral activity without photoactivation [3]: exhibit antiviral activity in the dark; antiviral effect with pre-treatment versus treatment after infection [3]: more pronounced; inhibition of SARS-CoV-2 infection in culture [3]: significantly inhibits
6 | C1=Cc2cc3ccc(cc4nc(cc5ccc(cc1n2)[nH]5)C=C4)[nH]3 [Porphine] | N | –
7 | C=CC1=C(C)c2cc3[nH]c(cc4nc(cc5[nH]c(cc1n2)c(C)c5CCC(=O)O)C(CCC(=O)O)=C4C)c(C)c3C=C [Protoporphyrin IX] | – | IC50 [1]: 1200 nM
8 | C[n+]1ccc(-c2c3nc(c(-c4cc[n+](C)cc4)c4ccc([nH]4)c(-c4cc[n+](C)cc4)c4ccc([nH]4)c(-c4cc[n+](C)cc4)c4nc2C=C4)C=C3)cc1 [TmPyP4] | N | –
9 | Coproporphyrin III | N | –
10 | MnTBAP | N | –
11 | N-Methyl Mesoporphyrin | N | –
12 | N-Methyl Protoporphyrin | N | –
13 | Verteporfin | Y | IC50 ([1]; read-out: IC50): 225 nM
14 | Vitamin B12 | N | inhibition of the binding of SARS-CoV-2 Spike protein to ACE2 (in words) [1]: non-active
